# In patent US7811352B2, “Fertilizer compositions and methods of using” (priority 2005, dated 2010):
# What was measured:
# Bermuda grass [1] = test: Turfgrass quality and color ratings, Bermuda grass fairway (Example 10); type: in vivo; settings: scale 1-10
# Text: (§1) In this Example, the effect of a fertilizer comprising lysine on warm season turfgrass growth was examined. The effects of lysine (HCl) and LIQUID LYSINE on a common type of golf course fairway quality turfgrass (Bermuda grass) were compared with those of urea and Milorganite.
# (§2) Fifteen fertilizer treatments comprising three concentrations of each fertilizer composition (Milorganite (N—P—K, 6-2-0), urea (N—P—K, 46-0-0), LIQUID LYSINE (N—P—K, 10-2-1), and both granular and aqueous lysine (HCl) (N—P—K, 15-2-1)) were prepared and applied to 4 replications of Bermuda grass. The aqueous lysine (HCl) was dissolved in water prior to application. Each fertilizer treatment was applied in concentrations of 0.5 lb N/1000 ft^2/month, 1.0 lb N/1000 ft^2/month and 3.0 lb N/1000 ft^2/month. The urea, LIQUID LYSINE and aqueous lysine (HCl) were applied as foliar liquids, while Milorganite and granular lysine (HCl) were applied as granular fertilizers Plot size was 1 m×2 m set up as a randomized complete block. Plots were mowed at 0.5 inches before fertilizer application. Irrigation (0.15 inch) was applied following application. Plots were rated for turfgrass quality and color (scale of 1-10 where 10=dark green turf, 1=dead/brown turf, and 6=minimally acceptable turf) and phytotoxicity (scale of 0-5, where 5=worst, and 2=minimally objectionable) throughout the study period. Quality, color, and phytotoxicity were measured on 2 days before application (day −2) and day 2, day 5, day 15 and day 21 after application. All data was subject to statistical analysis and significant means were determined. Average turfgrass quality ratings for the treatments are presented in Table 9 and the quality results for application rates of 1.0 lb N/1000 ft^2/month are graphically presented in FIG. 4.
# Bermuda grass [2] = test: Phytotoxicity rating, Bermuda grass fairway (Example 10); type: in vivo; settings: scale 0-5, 5=worst
# Text: as §1, §2
# [3] = Monthly Rate 0.5 lbs N/1000 ft^2, Day 2
# [4] = Monthly Rate 0.5 lbs N/1000 ft^2, Day 2, (HCl)
# [5] = Monthly Rate 0.5 lbs N/1000 ft^2, Day 5, (HCl)
# [6] = Monthly Rate 0.5 lbs N/1000 ft^2, Day 15, (HCl)
# [7] = Monthly Rate 0.5 lbs N/1000 ft^2, Day 21, (HCl)
# [8] = Monthly Rate 0.5 lbs N/1000 ft^2, Day −2 (before application)
# [9] = Monthly Rate 0.5 lbs N/1000 ft^2, Day −2 (before application), (HCl)
# [10] = Monthly Rate 1.0 lbs N/1000 ft^2, Day 2, (HCl)
# [11] = Monthly Rate 1.0 lbs N/1000 ft^2, Day 5, (HCl)
# [12] = Monthly Rate 1.0 lbs N/1000 ft^2, Day 15
# [13] = Monthly Rate 1.0 lbs N/1000 ft^2, Day 15, (HCl)
# [14] = Monthly Rate 1.0 lbs N/1000 ft^2, Day 21, (HCl)
# [15] = Monthly Rate 1.0 lbs N/1000 ft^2, Day −2 (before application), (HCl)
# [16] = Monthly Rate 3.0 lbs N/1000 ft^2, Day 2
# [17] = Monthly Rate 3.0 lbs N/1000 ft^2, Day 5
# [18] = Monthly Rate 3.0 lbs N/1000 ft^2, Day 5, (HCl)
# [19] = Monthly Rate 3.0 lbs N/1000 ft^2, Day 15, (HCl)
# [20] = Monthly Rate 3.0 lbs N/1000 ft^2, Day 21, (HCl)
# [21] = Monthly Rate 3.0 lbs N/1000 ft^2, Day −2 (before application), (HCl)
# [22] = Monthly Rate 0.5 lbs N/1000 ft^2, Day 5
# [23] = Monthly Rate 0.5 lbs N/1000 ft^2, Day 15
# [24] = Monthly Rate 0.5 lbs N/1000 ft^2, Day 21
# [25] = Monthly Rate 1.0 lbs N/1000 ft^2, Day 2
# [26] = Monthly Rate 1.0 lbs N/1000 ft^2, Day 5
# [27] = Monthly Rate 1.0 lbs N/1000 ft^2, Day 21
# [28] = Monthly Rate 1.0 lbs N/1000 ft^2, Day −2 (before application)
# [29] = Monthly Rate 3.0 lbs N/1000 ft^2, Day 2, (HCl)
# [30] = Monthly Rate 3.0 lbs N/1000 ft^2, Day 15
# [31] = Monthly Rate 3.0 lbs N/1000 ft^2, Day 21
# [32] = Monthly Rate 3.0 lbs N/1000 ft^2, Day −2 (before application)
smiles,measurement,setting,value
"Cl.NCCCC[C@H](N)C(=O)O [Lys (HCl) 15% N (gran), lysine (HCl)]",Quality Ratings - Bermuda Grass,Bermuda grass [1]; [3],7.3b
same,Color Ratings - Bermuda Grass,Bermuda grass [1]; [4],7.5
same,Color Ratings - Bermuda Grass,Bermuda grass [1]; [5],8.0def
same,Quality Ratings - Bermuda Grass,Bermuda grass [1]; [5],7.6bcd
same,Color Ratings - Bermuda Grass,Bermuda grass [1]; [6],7.1e
same,Quality Ratings - Bermuda Grass,Bermuda grass [1]; [6],7.4e
same,Color Ratings - Bermuda Grass,Bermuda grass [1]; [7],8.3b
same,Quality Ratings - Bermuda Grass,Bermuda grass [1]; [7],7.9def
same,Color Ratings - Bermuda Grass,Bermuda grass [1]; [8],6.5
same,Quality Ratings - Bermuda Grass,Bermuda grass [1]; [9],6.5
same,Color Ratings - Bermuda Grass,Bermuda grass [1]; [10],7.9
same,Quality Ratings - Bermuda Grass,Bermuda grass [1]; [10],7.6ab
same,Color Ratings - Bermuda Grass,Bermuda grass [1]; [11],8.3bcd
same,Quality Ratings - Bermuda Grass,Bermuda grass [1]; [11],7.9abc
same,Color Ratings - Bermuda Grass,Bermuda grass [1]; [12],7.8cd
same,Quality Ratings - Bermuda Grass,Bermuda grass [1]; [13],8.1cd
same,Color Ratings - Bermuda Grass,Bermuda grass [1]; [14],8.3b
same,Quality Ratings - Bermuda Grass,Bermuda grass [1]; [14],8.1bcd
same,Color Ratings - Bermuda Grass,Bermuda grass [1]; [15],6.4
same,Quality Ratings - Bermuda Grass,Bermuda grass [1]; [15],6.3
same,Color Ratings - Bermuda Grass,Bermuda grass [1]; [16],7.3
same,Quality Ratings - Bermuda Grass,Bermuda grass [1]; [16],7.4b
same,Color Ratings - Bermuda Grass,Bermuda grass [1]; [17],9.0a
same,Quality Ratings - Bermuda Grass,Bermuda grass [1]; [18],8.5a
same,Color Ratings - Bermuda Grass,Bermuda grass [1]; [19],8.6a
same,Quality Ratings - Bermuda Grass,Bermuda grass [1]; [19],9.4a
same,Color Ratings - Bermuda Grass,Bermuda grass [1]; [20],8.9a
same,Quality Ratings - Bermuda Grass,Bermuda grass [1]; [20],8.6a
same,Color Ratings - Bermuda Grass,Bermuda grass [1]; [21],6.4
same,Quality Ratings - Bermuda Grass,Bermuda grass [1]; [21],6.1
same,Phytotoxicity - Bermuda Grass,Bermuda grass [2]; [3],0.0b
same,Phytotoxicity - Bermuda Grass,Bermuda grass [2]; [22],0
same,Phytotoxicity - Bermuda Grass,Bermuda grass [2]; [23],0
same,Phytotoxicity - Bermuda Grass,Bermuda grass [2]; [24],0
same,Phytotoxicity - Bermuda Grass,Bermuda grass [2]; [8],0
same,Phytotoxicity - Bermuda Grass,Bermuda grass [2]; [25],0.0b
same,Phytotoxicity - Bermuda Grass,Bermuda grass [2]; [26],0
same,Phytotoxicity - Bermuda Grass,Bermuda grass [2]; [12],0
same,Phytotoxicity - Bermuda Grass,Bermuda grass [2]; [27],0
same,Phytotoxicity - Bermuda Grass,Bermuda grass [2]; [28],0
same,Phytotoxicity - Bermuda Grass,Bermuda grass [2]; [29],0.5a
same,Phytotoxicity - Bermuda Grass,Bermuda grass [2]; [17],0
same,Phytotoxicity - Bermuda Grass,Bermuda grass [2]; [30],0
same,Phytotoxicity - Bermuda Grass,Bermuda grass [2]; [31],0
same,Phytotoxicity - Bermuda Grass,Bermuda grass [2]; [32],0
"Cl.NCCCC[C@H](N)C(=O)O [Lys (HCl) 15% N (aq), lysine (HCl)]",Quality Ratings - Bermuda Grass,Bermuda grass [1]; [3],7.3b
same,Color Ratings - Bermuda Grass,Bermuda grass [1]; [4],7.3
same,Color Ratings - Bermuda Grass,Bermuda grass [1]; [5],7.8 g·days
same,Quality Ratings - Bermuda Grass,Bermuda grass [1]; [5],7.1 days
same,Color Ratings - Bermuda Grass,Bermuda grass [1]; [6],7.6cde
same,Quality Ratings - Bermuda Grass,Bermuda grass [1]; [6],7.8de
same,Color Ratings - Bermuda Grass,Bermuda grass [1]; [7],8.0bc
same,Quality Ratings - Bermuda Grass,Bermuda grass [1]; [7],8.0cde
same,Color Ratings - Bermuda Grass,Bermuda grass [1]; [8],6.5
same,Quality Ratings - Bermuda Grass,Bermuda grass [1]; [9],6.3
same,Color Ratings - Bermuda Grass,Bermuda grass [1]; [10],7.3
same,Quality Ratings - Bermuda Grass,Bermuda grass [1]; [10],7.0b
same,Color Ratings - Bermuda Grass,Bermuda grass [1]; [11],8.1cde
same,Quality Ratings - Bermuda Grass,Bermuda grass [1]; [11],7.8bcd
same,Color Ratings - Bermuda Grass,Bermuda grass [1]; [12],7.8cd
same,Quality Ratings - Bermuda Grass,Bermuda grass [1]; [13],7.9de
same,Color Ratings - Bermuda Grass,Bermuda grass [1]; [14],8.0bc
same,Quality Ratings - Bermuda Grass,Bermuda grass [1]; [14],8.0cde
same,Color Ratings - Bermuda Grass,Bermuda grass [1]; [15],6.5
same,Quality Ratings - Bermuda Grass,Bermuda grass [1]; [15],6.4
same,Color Ratings - Bermuda Grass,Bermuda grass [1]; [16],7.3
same,Quality Ratings - Bermuda Grass,Bermuda grass [1]; [16],7.4b
same,Color Ratings - Bermuda Grass,Bermuda grass [1]; [17],9.0a
same,Quality Ratings - Bermuda Grass,Bermuda grass [1]; [18],8.3ab
same,Color Ratings - Bermuda Grass,Bermuda grass [1]; [19],8.3ab
same,Quality Ratings - Bermuda Grass,Bermuda grass [1]; [19],8.8b
same,Color Ratings - Bermuda Grass,Bermuda grass [1]; [20],8.8a
same,Quality Ratings - Bermuda Grass,Bermuda grass [1]; [20],8.5ab
same,Color Ratings - Bermuda Grass,Bermuda grass [1]; [21],6.1
same,Quality Ratings - Bermuda Grass,Bermuda grass [1]; [21],6.0
same,Phytotoxicity - Bermuda Grass,Bermuda grass [2]; [3],0.0b
same,Phytotoxicity - Bermuda Grass,Bermuda grass [2]; [22],0
same,Phytotoxicity - Bermuda Grass,Bermuda grass [2]; [23],0
same,Phytotoxicity - Bermuda Grass,Bermuda grass [2]; [24],0
same,Phytotoxicity - Bermuda Grass,Bermuda grass [2]; [8],0
same,Phytotoxicity - Bermuda Grass,Bermuda grass [2]; [25],0.0b
same,Phytotoxicity - Bermuda Grass,Bermuda grass [2]; [26],0
same,Phytotoxicity - Bermuda Grass,Bermuda grass [2]; [12],0
same,Phytotoxicity - Bermuda Grass,Bermuda grass [2]; [27],0
same,Phytotoxicity - Bermuda Grass,Bermuda grass [2]; [28],0
same,Phytotoxicity - Bermuda Grass,Bermuda grass [2]; [29],0.3ab
same,Phytotoxicity - Bermuda Grass,Bermuda grass [2]; [17],0
same,Phytotoxicity - Bermuda Grass,Bermuda grass [2]; [30],0
same,Phytotoxicity - Bermuda Grass,Bermuda grass [2]; [31],0
same,Phytotoxicity - Bermuda Grass,Bermuda grass [2]; [32],0
